Assay results: patent US20240025862A1, “SUBSTITUTED N-PHENYLURACILS AND SALTS THEREOF, AND USE THEREOF AS HERBICIDAL ACTIVE SUBSTANCES” (Bayer Aktiengesellschaft, priority 2020, published 2024)
Each block holds one molecule with its values, some of them ahead of it.

Legend:
Assay type in all cases: in vivo
[1] = test system: Abutilon theophrasti (ABUTH); assay: Post-emergence herbicidal action, greenhouse pot test; conditions: rated visually after about 3 weeks vs untreated controls, 100% = plants have died
Outline: (§1)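 Greenhouse-grown weeds in sandy loam were sprayed post-emergence at the one-leaf stage, 2–3 weeks after sowing. Compounds were formulated as WP or EC in water with 0.5% additive at 600 l/ha, at rates of 20 g/ha or less. Visual rating after about 3 weeks used a scale from 0% (like untreated control) to 100% (plants dead).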

[2] = test system: Amaranthus retroflexus (AMARE); assay: as above; conditions: rated visually after about 3 weeks vs untreated controls, 100% = plants have died
Outline: as §1

Avena fatua (AVEFA) = assay: as above; conditions: 20 g/ha, rated visually after about 3 weeks vs untreated controls, 100% = plants have died
Outline: as §1

[3] = test system: Pharbitis purpurea (PHBPU); assay: as above
Outline: as §1

[4] = test system: Polygonum convolvulus (POLCO); assay: as above
Outline: as §1

Veronica persica (VERPE) = assay: as above
Outline: as §1

Viola tricolor (VIOTR) = assay: as above
Outline: as §1

[5] = test system: Alopecurus myosuroides (ALOMY); assay: Post-emergence herbicidal action, greenhouse pot test (also comparative test C); conditions: rated visually after about 3 weeks vs untreated controls, 100% = plants have died
Outline: (§2)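 Greenhouse pot plants in sandy loam were sprayed post-emergence at the one-leaf stage (2–3 weeks after sowing) with WP or EC formulations plus 0.5% additive at 600 l/ha water. Activity was rated visually after about 3 weeks versus untreated controls (100% = dead, 0% = like control); rates were 20 g/ha or less, and 5 g/ha or less in the comparative test.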

[6] = test system: Echinochloa crus-galli (ECHCG); assay: as above
Outline: as §2

[7] = test system: Matricaria inodora (MATIN); assay: as above
Outline: as §2

Setaria viridis (SETVI) = assay: as above
Outline: as §2

[8] = test system: Triticum aestivum (TRZAS); assay: Post-emergence crop plant compatibility, greenhouse pot test; conditions: vs untreated controls
Outline: (§3)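 Crop plants grown in sandy loam in the greenhouse were sprayed post-emergence at the one-leaf stage, 2–3 weeks after sowing, with WP or EC formulations as aqueous suspension/emulsion plus 0.5% additive at 600 l/ha. Damage was rated visually about 3 weeks later versus untreated controls (0% = like control, 100% = plants dead).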

Zea mays (ZEAMX) = assay: as above; conditions: 1.25 g/ha, vs untreated controls
Outline: as §3

Oryza sativa (ORYSA) = assay: Post-emergence crop plant compatibility, greenhouse pot test (also comparative test C); conditions: for Post-emergence action against ORYSA (crop plant compatibility): vs untreated controls; for Post-emergence action against ORYSA in %: 20 g/ha, crop plant compatibility
Outline: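 Rice and other crops sprayed post-emergence at one-leaf stage (2–3 weeks after sowing) with WP or EC formulations plus 0.5% additive at 600 l/ha water. Visual rating about 3 weeks later versus untreated controls (100% = dead, 0% = like control); suffixes a–c denote different doses.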

- Post-emergence action against TRZAS (crop plant compatibility) ([8]; 1.25 g/ha): 10%
- Post-emergence action against TRZAS (crop plant compatibility) ([8]; 5 g/ha): 20%
- Post-emergence action against TRZAS (crop plant compatibility) ([8]; 20 g/ha): 20%
- Post-emergence action against ZEAMX (crop plant compatibility) (Zea mays (ZEAMX)): 20%
- Post-emergence action against ORYSA (crop plant compatibility) (Oryza sativa (ORYSA); 1.25 g/ha): 10%
- Post-emergence action against ORYSA (crop plant compatibility) (Oryza sativa (ORYSA); 5 g/ha): 10%
- Post-emergence action against ORYSA in % (Oryza sativa (ORYSA)): 20%
Compound: Cn1c(C(F)(F)F)cc(=O)n(-c2cc(Oc3ccccc3OCC(=O)OCCOC(F)(F)F)c([N+](=O)[O-])cc2F)c1=O [I.6-41]
- Post-emergence action at 1.25 g/ha against ABUTH in % ([1]; 1.25 g/ha): 100%
- Post-emergence action at 5 g/ha against ABUTH in % ([1]; 5 g/ha): 100%
- Post-emergence action at 20 g/ha against ABUTH in % ([1]; 20 g/ha): 100%
- Post-emergence action at 1.25 g/ha against AMARE in % ([2]; 1.25 g/ha): 100%
- Post-emergence action at 5 g/ha against AMARE in % ([2]; 5 g/ha): 100%
- Post-emergence action at 20 g/ha against AMARE in % ([2]; 20 g/ha): 100%
- Post-emergence action at 20 g/ha against AVEFA in % (Avena fatua (AVEFA)): 80%
- Post-emergence action against PHBPU in % ([3]; dosage 1.25 g/ha): 100%
- Post-emergence action against PHBPU in % ([3]; dosage 5 g/ha): 100%
- Post-emergence action against PHBPU in % ([3]; dosage 20 g/ha): 100%
- Post-emergence action against POLCO in % ([4]; dosage 20 g/ha): 100%
- Post-emergence action against VERPE (Veronica persica (VERPE); 5 g/ha): 100%
- Post-emergence action against VERPE (Veronica persica (VERPE); 20 g/ha): 100%
- Post-emergence action against VIOTR (Viola tricolor (VIOTR); 1.25 g/ha): 100%
- Post-emergence action against VIOTR (Viola tricolor (VIOTR); 5 g/ha): 100%
- Post-emergence action against VIOTR (Viola tricolor (VIOTR); 20 g/ha): 100%
- Post-emergence action at 5 g/ha against ALOMY in % ([5]; 5 g/ha): 80%
- Post-emergence action at 20 g/ha against ALOMY in % ([5]; 20 g/ha): 100%
- Post-emergence action against ECHCG in % ([6]; dosage 5 g/ha): 100%
- Post-emergence action against ECHCG in % ([6]; dosage 20 g/ha): 100%
- Post-emergence action against MATIN in % ([7]; dosage 5 g/ha): 80%
- Post-emergence action against MATIN in % ([7]; dosage 20 g/ha): 100%
- Post-emergence action against SETVI (Setaria viridis (SETVI); 20 g/ha): 100%
- Post-emergence action against SETVI in % (Setaria viridis (SETVI); dosage 1.25 g/ha): 100%
- Post-emergence action against SETVI in % (Setaria viridis (SETVI); dosage 5 g/ha): 100%

- Post-emergence action against TRZAS (crop plant compatibility) ([8]; 1.25 g/ha): 0%
- Post-emergence action against TRZAS (crop plant compatibility) ([8]; 5 g/ha): 20%
- Post-emergence action against ORYSA (crop plant compatibility) (Oryza sativa (ORYSA); 1.25 g/ha): 0%
- Post-emergence action against ORYSA (crop plant compatibility) (Oryza sativa (ORYSA); 5 g/ha): 20%
Compound: Cn1c(C(F)(F)F)cc(=O)n(-c2cc(Oc3ccccc3OCC(=O)OCC#N)c(Br)cc2F)c1=O [I.8-176, Cyanomethyl (2-{2-bromo-4-fluoro-5-[3-methyl-2,6-dioxo-4-(trifluoromethyl)-3,6-dihydropyrimidin-1(2H)-yl]phenoxy}phenoxy)acetate]
- pest or weed control at 1.25 g/ha ([1]; Abutilon theophrasti, 504 h, 1.25 g/ha, read-out: Post-emergence action at 1.25 g/ha against ABUTH in %): 100%
- pest or weed control at 5 g/ha ([1]; Abutilon theophrasti, 504 h, 5 g/ha, read-out: Post-emergence action at 5 g/ha against ABUTH in %): 100%
- pest or weed control at 20 g/ha ([1]; Abutilon theophrasti, 504 h, 20 g/ha, read-out: Post-emergence action at 20 g/ha against ABUTH in %): 100%
- pest or weed control at 1.25 g/ha ([2]; Amaranthus retroflexus, 504 h, 1.25 g/ha, read-out: Post-emergence action at 1.25 g/ha against AMARE in %): 100%
- pest or weed control at 5 g/ha ([2]; Amaranthus retroflexus, 504 h, 5 g/ha, read-out: Post-emergence action at 5 g/ha against AMARE in %): 100%
- pest or weed control at 20 g/ha ([2]; Amaranthus retroflexus, 504 h, 20 g/ha, read-out: Post-emergence action at 20 g/ha against AMARE in %): 100%
- pest or weed control at 20 g/ha (Avena fatua (AVEFA); Avena fatua, 504 h, read-out: Post-emergence action at 20 g/ha against AVEFA in %): 80%
- pest or weed control at 1.25 g/ha ([3]; Ipomoea purpurea, 504 h, dosage 1.25 g/ha, read-out: Post-emergence action against PHBPU in %): 80%
- pest or weed control at 5 g/ha ([3]; Ipomoea purpurea, 504 h, dosage 5 g/ha, read-out: Post-emergence action against PHBPU in %): 80%
- pest or weed control at 20 g/ha ([3]; Ipomoea purpurea, 504 h, dosage 20 g/ha, read-out: Post-emergence action against PHBPU in %): 100%
- pest or weed control at 5 g/ha ([4]; Fallopia convolvulus, 504 h, dosage 5 g/ha, read-out: Post-emergence action against POLCO in %): 80%
- pest or weed control at 20 g/ha ([4]; Fallopia convolvulus, 504 h, dosage 20 g/ha, read-out: Post-emergence action against POLCO in %): 100%
- pest or weed control at 1.25 g/ha (Veronica persica (VERPE); Veronica persica, 504 h, 1.25 g/ha, read-out: Post-emergence action against VERPE): 100%
- pest or weed control at 5 g/ha (Veronica persica (VERPE); Veronica persica, 504 h, 5 g/ha, read-out: Post-emergence action against VERPE): 100%
- pest or weed control at 20 g/ha (Veronica persica (VERPE); Veronica persica, 504 h, 20 g/ha, read-out: Post-emergence action against VERPE): 100%
- pest or weed control at 1.25 g/ha (Viola tricolor (VIOTR); Viola tricolor, 504 h, 1.25 g/ha, read-out: Post-emergence action against VIOTR): 90%
- pest or weed control at 5 g/ha (Viola tricolor (VIOTR); Viola tricolor, 504 h, 5 g/ha, read-out: Post-emergence action against VIOTR): 100%
- pest or weed control at 20 g/ha (Viola tricolor (VIOTR); Viola tricolor, 504 h, 20 g/ha, read-out: Post-emergence action against VIOTR): 100%
- pest or weed control at 5 g/ha ([5]; Alopecurus myosuroides, 504 h, 5 g/ha, read-out: Post-emergence action at 5 g/ha against ALOMY in %): 80%
- pest or weed control at 20 g/ha ([5]; Alopecurus myosuroides, 504 h, 20 g/ha, read-out: Post-emergence action at 20 g/ha against ALOMY in %): 100%
- pest or weed control at 5 g/ha ([6]; Echinochloa crus-galli, 504 h, dosage 5 g/ha, read-out: Post-emergence action against ECHCG in %): 100%
- pest or weed control at 20 g/ha ([6]; Echinochloa crus-galli, 504 h, dosage 20 g/ha, read-out: Post-emergence action against ECHCG in %): 100%
- pest or weed control at 5 g/ha ([7]; Tripleurospermum inodorum, 504 h, dosage 5 g/ha, read-out: Post-emergence action against MATIN in %): 100%
- pest or weed control at 20 g/ha ([7]; Tripleurospermum inodorum, 504 h, dosage 20 g/ha, read-out: Post-emergence action against MATIN in %): 100%
- pest or weed control at 20 g/ha (Setaria viridis (SETVI); Setaria viridis, 504 h, 20 g/ha, read-out: Post-emergence action against SETVI): 100%
- pest or weed control at 1.25 g/ha (Setaria viridis (SETVI); Setaria viridis, 504 h, dosage 1.25 g/ha, read-out: Post-emergence action against SETVI in %): 100%
- pest or weed control at 5 g/ha (Setaria viridis (SETVI); Setaria viridis, 504 h, dosage 5 g/ha, read-out: Post-emergence action against SETVI in %): 100%

- Post-emergence action against TRZAS (crop plant compatibility) ([8]; 1.25 g/ha): 0%
- Post-emergence action against TRZAS (crop plant compatibility) ([8]; 5 g/ha): 20%
- Post-emergence action against ORYSA (crop plant compatibility) (Oryza sativa (ORYSA); 1.25 g/ha): 0%
- Post-emergence action against ORYSA (crop plant compatibility) (Oryza sativa (ORYSA); 5 g/ha): 0%
- Post-emergence action against ORYSA in % (Oryza sativa (ORYSA)): 0%
Compound: Cn1c(C(F)(F)F)cc(=O)n(-c2cc(Oc3ccccc3OCC(=O)OCC[N+](=O)[O-])c(Br)cc2F)c1=O [I.8-183]
- Post-emergence action at 5 g/ha against ABUTH in % ([1]; 5 g/ha): 100%
- Post-emergence action at 20 g/ha against ABUTH in % ([1]; 20 g/ha): 100%
- Post-emergence action at 1.25 g/ha against AMARE in % ([2]; 1.25 g/ha): 100%
- Post-emergence action at 5 g/ha against AMARE in % ([2]; 5 g/ha): 100%
- Post-emergence action at 20 g/ha against AMARE in % ([2]; 20 g/ha): 100%
- Post-emergence action at 20 g/ha against AVEFA in % (Avena fatua (AVEFA)): 100%
- Post-emergence action against PHBPU in % ([3]; dosage 5 g/ha): 100%
- Post-emergence action against PHBPU in % ([3]; dosage 20 g/ha): 100%
- Post-emergence action against POLCO in % ([4]; dosage 5 g/ha): 100%
- Post-emergence action against POLCO in % ([4]; dosage 20 g/ha): 100%
- Post-emergence action against VERPE (Veronica persica (VERPE); 5 g/ha): 100%
- Post-emergence action against VERPE (Veronica persica (VERPE); 20 g/ha): 100%
- Post-emergence action against VIOTR (Viola tricolor (VIOTR); 1.25 g/ha): 100%
- Post-emergence action against VIOTR (Viola tricolor (VIOTR); 5 g/ha): 100%
- Post-emergence action against VIOTR (Viola tricolor (VIOTR); 20 g/ha): 100%
- Post-emergence action at 5 g/ha against ALOMY in % ([5]; 5 g/ha): 80%
- Post-emergence action at 20 g/ha against ALOMY in % ([5]; 20 g/ha): 100%
- Post-emergence action against ECHCG in % ([6]; dosage 5 g/ha): 100%
- Post-emergence action against ECHCG in % ([6]; dosage 20 g/ha): 100%
- Post-emergence action against MATIN in % ([7]; dosage 5 g/ha): 80%
- Post-emergence action against MATIN in % ([7]; dosage 20 g/ha): 100%
- Post-emergence action against SETVI (Setaria viridis (SETVI); 20 g/ha): 100%
- Post-emergence action against SETVI in % (Setaria viridis (SETVI); dosage 1.25 g/ha): 100%
- Post-emergence action against SETVI in % (Setaria viridis (SETVI); dosage 5 g/ha): 100%
